These results are taken from BindingDB's records for doi:10.1021/acs.jmedchem.9b01348 (West China Hospital of Sichuan University, 2019).

The nature of this test: Inhibition of JAK2 V617F mutant in BAF3 cells assessed as reduction in cell growth measured after 72 hrs by MTT assay. In general terms: Tetrazolium dyes change colour on reduction, which living cells bring about.

In general, IC50 refers to the concentration needed to halve the response being measured. As to `C1=C/COCc2cc(ccc2OCCN2CCCC2)Nc2nccc(n2)-c2cccc(c2)COC/1` [ONX-0803], the IC50 stood at 1.06 µM.
